Eight compounds from paper PMC11318591 (ACS Medicinal Chemistry Letters, 2024) can be followed below.

One assay deals with S. aureus DNA gyrase (Staphylococcus aureus, UniProt P20831). As to the kind of experiment: DNA cleavage assay.
Assay [1] relates to S. enterica Typhimurium 14028 ΔtolC1::kan. The experiment in a line: Minimal inhibitory concentration. The format is cell-based, Salmonella enterica serovar Typhimurium. The note with it: for MIC: Salmonella enterica, TYPHIMURIUM, read-out: S. enterica Typhimurium 14028 ΔtolC1::kan MIC.
Setting [2] is: MIC wildtype 14028 vs efflux-deficient ΔtolC1::kan.

In brackets after ≈: the same amount, converted by molar mass. Read-outs that look alike come from different tables or passages of the source.

S. aureus DNA gyrase, sequence (P20831 whole entry): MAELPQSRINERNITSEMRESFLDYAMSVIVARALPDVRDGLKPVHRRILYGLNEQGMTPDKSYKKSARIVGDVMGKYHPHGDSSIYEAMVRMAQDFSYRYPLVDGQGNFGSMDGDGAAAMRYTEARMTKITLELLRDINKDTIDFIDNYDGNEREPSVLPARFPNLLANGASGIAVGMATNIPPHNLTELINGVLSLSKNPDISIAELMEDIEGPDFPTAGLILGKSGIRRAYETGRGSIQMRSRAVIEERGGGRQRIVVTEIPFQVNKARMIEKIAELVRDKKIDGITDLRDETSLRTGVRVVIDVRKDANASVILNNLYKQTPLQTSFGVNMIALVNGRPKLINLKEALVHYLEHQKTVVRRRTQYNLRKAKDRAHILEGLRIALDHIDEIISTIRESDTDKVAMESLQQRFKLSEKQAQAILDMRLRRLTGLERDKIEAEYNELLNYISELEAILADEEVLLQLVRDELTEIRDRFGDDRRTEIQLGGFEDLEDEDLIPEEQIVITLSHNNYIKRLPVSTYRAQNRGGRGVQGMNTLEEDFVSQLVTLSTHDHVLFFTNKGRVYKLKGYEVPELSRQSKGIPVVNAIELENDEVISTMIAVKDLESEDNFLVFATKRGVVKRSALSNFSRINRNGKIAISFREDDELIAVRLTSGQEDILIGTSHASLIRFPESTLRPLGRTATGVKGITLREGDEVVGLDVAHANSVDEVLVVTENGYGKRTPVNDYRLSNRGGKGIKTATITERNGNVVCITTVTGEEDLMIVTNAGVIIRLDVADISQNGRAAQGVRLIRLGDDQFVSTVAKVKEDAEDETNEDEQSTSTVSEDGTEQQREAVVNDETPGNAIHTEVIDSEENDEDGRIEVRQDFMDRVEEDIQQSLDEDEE
S. aureus DNA gyrase, sequence (P0A0K8 whole entry partner): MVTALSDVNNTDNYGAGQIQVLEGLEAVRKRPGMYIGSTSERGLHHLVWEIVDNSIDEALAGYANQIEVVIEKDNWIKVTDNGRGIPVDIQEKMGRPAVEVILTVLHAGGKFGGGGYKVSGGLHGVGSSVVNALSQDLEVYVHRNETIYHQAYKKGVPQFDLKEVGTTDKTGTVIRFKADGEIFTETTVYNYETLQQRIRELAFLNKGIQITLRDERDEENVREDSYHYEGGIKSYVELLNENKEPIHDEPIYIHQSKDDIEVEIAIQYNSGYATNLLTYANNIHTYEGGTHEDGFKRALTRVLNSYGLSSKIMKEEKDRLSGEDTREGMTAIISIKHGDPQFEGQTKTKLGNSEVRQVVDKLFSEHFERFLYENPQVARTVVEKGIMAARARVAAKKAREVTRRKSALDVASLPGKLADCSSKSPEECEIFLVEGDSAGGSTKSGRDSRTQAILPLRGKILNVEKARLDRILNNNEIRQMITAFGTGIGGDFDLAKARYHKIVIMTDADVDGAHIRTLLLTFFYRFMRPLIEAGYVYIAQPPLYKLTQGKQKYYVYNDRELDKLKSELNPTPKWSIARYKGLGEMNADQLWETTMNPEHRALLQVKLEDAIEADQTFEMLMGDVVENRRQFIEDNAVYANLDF

Turning to `COc1ccc2ncc(F)c(CCN3CCC(C(N)Cc4ccc(C)cc4)CC3)c2n1` (stereo not drawn) [9a], the “levels of SSBs” value at S. aureus DNA gyrase is “lower levels of SSBs”. As usually defined, the MIC is the lowest concentration found to suppress growth. As to `COc1ccc2ncc(F)c(CCN3CCC(/C=C/c4ccc(C)cc4)CC3)c2n1` [13a], in assay [1], the MIC lay within 0.5 to 1 µg/mL (≈ 1.23 to 2.47 µM). On the same count and under the same terms, in the case of `COc1ccc2ncc(F)c(CCN3CCC([C@@H](O)[C@H](O)c4ccc(C)cc4)CC3)c2n1` [16a] it was 0.5 to 1 µg/mL (≈ 1.14 to 2.28 µM); in that of `COc1ccc2ncc(F)c(CCN3CCC([C@@H](O)[C@H](O)c4ccc5c(c4)OCCO5)CC3)c2n1` [16b], 0.5 µg/mL (≈ 1.03 µM). As for `COc1ccc2ncc(F)c(CCN3CCC(/C=C\c4ccc(C)cc4)CC3)c2n1` [21a], the “Fold Change” value in assay [1] is recorded as not below 8. `COc1ccc2ncc(F)c(CCN3CCC(/C=C\c4ccc5c(c4)OCCO5)CC3)c2n1` [21b]: the “Fold Change” value in assay [1] (setting [2]) is given as not below 16. Take `O=c1ccc2ncc(=O)n3c2n1C[C@H]3CN1CCC(NCc2cc3c(cn2)OCCC3)CC1` [Gep., gepotidacin, reference compound]: the “Fold Change” value in assay [1] (setting [2]) was 4–16. Also, the MIC in assay [1] is 0.125 to 0.5 µg/mL (≈ 0.279 to 1.11 µM).

Take `COc1ccc2ncc(F)c(CCN3CCC(NCc4ccc(C)cc4)CC3)c2n1` [compound 40]: at S. aureus DNA gyrase, the “levels of SSBs” value was “lower levels of SSBs”.
